The source made the active and inactive calls.
Assays:
[1] = molecular target: T1, Heat shock factor protein 1 (Mus musculus, UniProt P38532); experiment: inhibition of MG132-induced HSE-luciferase signal, confirmation, cell-based, NIH3T3, luminescence, dose retest (AID 2382); type: functional;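 also: NIH3T3 fibroblasts with HSF1-driven luciferase reporter stressed by proteasome inhibitor MG132; luminescence from HSF1-driven luciferase expression after 8 hours of MG132 stress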
T1 sequence (P38532 whole entry): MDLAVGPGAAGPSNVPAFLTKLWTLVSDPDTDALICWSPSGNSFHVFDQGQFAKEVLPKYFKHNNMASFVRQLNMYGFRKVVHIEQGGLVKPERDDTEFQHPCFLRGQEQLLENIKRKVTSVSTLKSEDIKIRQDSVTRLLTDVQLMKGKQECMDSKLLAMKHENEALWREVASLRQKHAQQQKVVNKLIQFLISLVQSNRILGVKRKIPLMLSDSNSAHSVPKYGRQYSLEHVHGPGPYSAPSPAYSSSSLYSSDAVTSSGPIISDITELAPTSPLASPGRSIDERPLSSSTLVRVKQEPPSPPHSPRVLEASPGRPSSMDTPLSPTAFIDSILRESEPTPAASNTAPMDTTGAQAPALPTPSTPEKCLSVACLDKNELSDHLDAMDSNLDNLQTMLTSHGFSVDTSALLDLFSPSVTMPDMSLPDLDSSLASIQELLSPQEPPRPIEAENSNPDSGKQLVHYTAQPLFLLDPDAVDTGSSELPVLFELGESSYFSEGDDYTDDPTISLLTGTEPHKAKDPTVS

[2] = Luminescence-based counterscreen assay for KLF5 inhibitors: dose response cell-based high throughput screening assay to identify cytotoxic compounds using the IEC-6 intestinal epithelial cell line. [Related pubchem assays: 1700 (Primary screen.), 1834 (Confirmation screen.), 1858 (Summary AID.), 1905 (Counterscreen.)]; type: functional
Jurkat [3] = experiment: antigen receptor-induced NF-kB inhibitors, dose response, Jurkat, luciferase reporter, luminescence, B- and T-cell (AID 489004); type: functional, cell-based; conditions: Homo sapiens;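 also: NF-kB luciferase reporter Jurkat cells stimulated with PMA plus ionomycin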
[4] = cytotoxicity in HEK-293T NF-kB-Luc cells, dose response, cytotoxicity control for B/T-cell NF-kB inhibitor project, cell-based, uHTS hits (AID 489019); type: functional;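 also: IC50 reflects cytotoxicity as loss of cell viability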
[5] = Shn3 3'UTR reporter inhibitors, dose response, cell-based, Clone20 osteoblasts, firefly luciferase, cherry-picked (AID 624132); type: functional;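 also: firefly luciferase luminescence from reporter carrying the Shn3 3'UTR in osteoblasts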
[6] = HepG2 cell cytotoxicity, dose response, cytotoxicity control for Shn3 inhibitor project, CellTiter-Glo, cherry-picked (AID 624134); type: functional, cell-based
Paired box protein Pax-8 = Paired box protein Pax-8 (Homo sapiens, UniProt Q06710); experiment: inhibitors of PAX8-driven TPO luciferase reporter, dose response, RMG-I cells, cherry-pick (AID 687027); type: functional, cell-based;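 also: luciferase reporter driven by Pax8 target thyroperoxidase promoter measured by SteadyGlo luminescence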
[7] = PAX2 cell-based inhibition, dose response, selectivity assay for PAX8 inhibitor project, plate reader, dry powder samples (AID 743048); type: functional;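 also: HEK293 cells carrying a WT1 promoter luciferase reporter driven by expressed Pax2; potency is for inhibition of Pax2 driven reporter signal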
[8] = cytotoxicity in COV362 ovarian cancer cells, dose response, cytotoxicity control for PAX8 inhibitor project, cell-based, plate reader, dry powder, SA12 (AID 743144); type: functional
[9] = reduction of Shn3 3'UTR firefly luciferase signal, dose response, Schnurri-3 inhibitor project, cell-based, Clone20 osteoblasts, cherry-pick, set 2 (AID 720490); type: functional;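 also: actives lower the luminescence signal as inhibitors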
[10] = IOSE-T80 ovarian epithelial cell cytotoxicity, dose response, cytotoxicity control for PAX8 inhibitor project, plate reader, dry powder samples (AID 743045); type: functional, cell-based
[11] = PAX5 activity inhibitors, dose response, selectivity assay for PAX8 inhibitor project, cell-based, plate reader, dry powder samples (AID 743047); type: functional;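 also: HEK293 cells carrying a Pax5 driven CD19 promoter luciferase reporter; potency of inhibitors that lower reporter luminescence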
[12] = IGROV1 ovarian cancer cell cytotoxicity, dose response, PAX8 inhibitor project, plate reader, dry powder samples (AID 743043); type: functional, cell-based; conditions: IGROV-1
[13] = cytotoxicity dependent on PAX8, dose response, cell-based, plate reader, dry powder (AID 743049); type: functional
Escherichia coli = experiment: microbe, parasite or virus in culture
[14] = inhibitors of firefly luciferase expression or activity, dose response, H4 neuroglioma cells, luminescence (AID 1990); type: functional, cell-based
BJ [15] = experiment: cytotoxicity toward BJ-TERT fibroblasts, dose response, cell-based, RAS-independent, luminescence (AID 1933); type: functional; conditions: Homo sapiens
[16] = Luminescence Cell-Based Dose Response HTS to Identify Inhibitors of 5'UTR Stem-Loop Driven Prion Protein mRNA Translation in H4 Neuroglioblastoma Cells. [Related pubchem assays: 1827 (Project Summary), 1813 (Primary HTS)]; type: functional
BJ [17] = experiment: cells; type: functional, cell-based; conditions: Homo sapiens
BJ [18] = experiment: cytotoxicity toward BJ-TERT-LT-ST fibroblasts, dose response, cell-based, RAS-independent, luminescence (AID 1935); type: functional; conditions: Homo sapiens;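 also: BJ fibroblasts immortalized with TERT plus LT and ST oncogenes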
[19] = cytotoxicity toward DRD oncogenic fibroblasts, dose response, cell-based, non-viral oncogenic, luminescence (AID 1934); type: functional; conditions: Homo sapiens
[20] = Luminescence Cell-Based Dose Retest to Confirm Inhibitors of Cancer Stem Cells. [Related pubchem assays (depositor defined):AID2717, AID2721]; type: functional; conditions: Homo sapiens
[21] = cytotoxicity in HEK-293T cells, dose response, cytotoxicity control for TCR NF-kB inhibitor project, luminescence, T-cell screen hits (AID 489026); type: functional, cell-based;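 also: cells exposed to compound about 14 hours before the viability readout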
BJ [22] = experiment: cytotoxicity toward Ras-transformed BJeLR fibroblasts, dose response, cell-based, alamar blue fluorescence, cherrypicked samples (AID 2631); type: functional; conditions: Homo sapiens;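 also: confirmatory dose-response assay in RAS-dependent BJ fibroblasts engineered with TERT, LT and ST, with cytotoxicity read by fluorescence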
[23] = inhibitors of SNCA 5'UTR-driven reporter translation, confirmation, H4 neuroglioma cells, luminescence (AID 1988); type: functional, cell-based
HEK293 [24] = experiment: cytotoxicity in HEK293T NF-kB-Luc cells, SAR follow-up, cytotoxicity control for NF-kB activator project, cell-based, resazurin fluorescence (AID 493251); type: functional; conditions: Homo sapiens
Jurkat [25] = experiment: SAR Analysis of small molecule inhibitors of T-cell specific antigen receptor-induced NF-kB activation in a Jurkat cell line using a luminescence assay - Set 2. [Related pubchem assays (depositor defined):AID435003, AID435012, AID465]; type: functional, cell-based; conditions: Homo sapiens
HEK293 [26] = experiment: SAR Analysis of small molecule inhibitors of T-cell specific antigen receptor-induced NF-kB activation in a HEK-293T cell line using a luminescence assay - Set 2. [Related pubchem assays (depositor defined):AID435003, AID435012, AID489026]; type: functional, cell-based; conditions: Homo sapiens
[27] = control 3'UTR Renilla luciferase suppression, dose response, counter-screen for Shn3 inhibitor project, cell-based, Clone20-Shn3RL, cherry-picked (AID 624133); type: functional
[28] = Fluorescence-based cell-based high throughput dose response assay for inhibitors of the interaction of nucleotide-binding oligomerization domain containing 2 (NOD2) and the receptor-interacting serine-threonine kinase 2 (RIPK2).; type: functional; conditions: Homo sapiens
Phospholipase D1 = Phospholipase D1 (Homo sapiens, UniProt Q13393); experiment: PLD1 inhibitor potency in cells, dose response (AID 602151); type: functional;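 also: cellular PLD1 assay in Calu-1 cells stimulated with PMA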
Phospholipase D2 = Phospholipase D2 (Homo sapiens, UniProt O14939); experiment: PLD2 inhibitor potency in cells, dose response (AID 602147); type: functional;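 also: cellular assay in HEK293 cells overexpressing GFP-tagged PLD2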
CAAX prenyl protease 2 [29] = molecular target: CAAX prenyl protease 2 (Saccharomyces cerevisiae S288c, UniProt Q03530); type: biochemical
CAAX prenyl protease 2 [30] = molecular target: CAAX prenyl protease 2 (Homo sapiens, UniProt Q9Y256); experiment: human Rce1 protease inhibitors, dose response, biochemical, yeast membranes, quenched-peptide fluorescence, cherry-pick (AID 588849)
[31] = molecular target: Acyl-homoserine lactone acylase PvdQ (Pseudomonas aeruginosa (strain LESB58), UniProt Q9I194); experiment: P. aeruginosa PvdQ acylase inhibitors, dose response, biochemical, fluorescence, plate reader and imaging, cherry-picks (AID 493231)
HeLa = experiment: HeLa cell cytotoxicity, dose response, cytotoxicity control, 48 h, plate reader, cherry-picks (AID 504942); type: functional, cell-based; conditions: Homo sapiens
[32] = molecular target: T2, Short transient receptor potential channel 4 (Mus musculus, UniProt Q9QUQ5); experiment: mouse TRPC4 channel activators, dose response, cell-based, HEK293 TRPC4/mu-opioid, Fluo-4 calcium (AID 434937); type: functional
T2 sequence (Q9QUQ5 whole entry): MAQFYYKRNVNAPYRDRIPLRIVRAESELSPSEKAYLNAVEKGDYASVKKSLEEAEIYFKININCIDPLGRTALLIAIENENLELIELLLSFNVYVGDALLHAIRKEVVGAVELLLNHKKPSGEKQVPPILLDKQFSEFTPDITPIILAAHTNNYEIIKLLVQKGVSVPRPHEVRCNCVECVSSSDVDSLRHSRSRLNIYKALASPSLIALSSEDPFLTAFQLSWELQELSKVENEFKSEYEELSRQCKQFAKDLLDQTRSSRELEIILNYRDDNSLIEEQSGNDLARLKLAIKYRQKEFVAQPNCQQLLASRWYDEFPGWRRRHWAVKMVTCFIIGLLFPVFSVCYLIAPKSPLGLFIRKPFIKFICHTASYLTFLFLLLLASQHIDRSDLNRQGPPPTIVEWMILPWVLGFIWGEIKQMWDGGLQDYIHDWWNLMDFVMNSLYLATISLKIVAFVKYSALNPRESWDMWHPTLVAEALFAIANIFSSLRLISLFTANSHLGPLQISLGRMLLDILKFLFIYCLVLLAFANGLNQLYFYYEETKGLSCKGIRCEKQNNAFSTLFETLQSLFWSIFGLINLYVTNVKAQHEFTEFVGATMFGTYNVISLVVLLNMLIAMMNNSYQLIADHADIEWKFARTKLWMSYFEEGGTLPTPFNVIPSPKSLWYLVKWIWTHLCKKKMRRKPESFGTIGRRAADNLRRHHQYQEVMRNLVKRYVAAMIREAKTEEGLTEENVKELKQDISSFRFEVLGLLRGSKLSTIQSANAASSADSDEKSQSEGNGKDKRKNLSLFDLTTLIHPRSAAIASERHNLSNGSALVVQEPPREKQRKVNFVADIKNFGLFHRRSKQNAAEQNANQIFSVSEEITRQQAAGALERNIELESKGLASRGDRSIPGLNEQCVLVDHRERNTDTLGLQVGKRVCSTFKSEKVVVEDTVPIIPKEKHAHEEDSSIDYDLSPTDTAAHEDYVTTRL

[33] = molecular target: Delta-type opioid receptor (Homo sapiens, UniProt P41143); experiment: Counterscreen for agonists of heterodimerization of the mu 1 (OPRM1) and delta 1 (OPRD1) opioid receptors: Luminescence-based cell-based high throughput dose response assay to identify agonists of OPRD1 homodimerization. [Related pubchem assays (depositor defined):AID504326, AID504355, AID504692, AID504904, AID504905]; type: functional
Mu-type opioid receptor = Mu-type opioid receptor (Homo sapiens, UniProt P35372); experiment: Counterscreen for agonists of heterodimerization of the mu 1 (OPRM1) and delta 1 (OPRD1) opioid receptors: Luminescence-based cell-based high throughput dose response assay to identify agonists of OPRM1 homodimerization.; type: functional;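 also: U2OS cells expressing OPRM1 and beta-arrestin as split beta-galactosidase partners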
[34] = molecular target: 5-hydroxytryptamine receptor 5A (Homo sapiens, UniProt P47898); experiment: Counterscreen for agonists of OPRM1-OPRD1 heterodimerization: luminescence-based cell-based high throughput dose response assay to identify agonists of 5-hydroxytryptamine (serotonin) 5A receptor (HTR5A). [Related pubchem assays (depositor defined):AID504326, AID504355, AID504692, AID504904, AID504905]; type: functional
5-hydroxytryptamine receptor 5A, sequence (P47898 whole entry): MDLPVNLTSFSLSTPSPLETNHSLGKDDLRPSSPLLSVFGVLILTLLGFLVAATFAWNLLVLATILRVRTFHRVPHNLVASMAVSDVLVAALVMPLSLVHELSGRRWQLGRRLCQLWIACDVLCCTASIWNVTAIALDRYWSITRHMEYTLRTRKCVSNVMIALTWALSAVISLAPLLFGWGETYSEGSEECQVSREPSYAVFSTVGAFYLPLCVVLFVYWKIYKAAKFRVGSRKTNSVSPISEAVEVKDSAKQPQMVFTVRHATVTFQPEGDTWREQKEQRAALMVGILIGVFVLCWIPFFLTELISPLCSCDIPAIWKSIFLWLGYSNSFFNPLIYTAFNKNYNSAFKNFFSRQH

Paired box protein Pax-8, sequence (Q06710 whole entry): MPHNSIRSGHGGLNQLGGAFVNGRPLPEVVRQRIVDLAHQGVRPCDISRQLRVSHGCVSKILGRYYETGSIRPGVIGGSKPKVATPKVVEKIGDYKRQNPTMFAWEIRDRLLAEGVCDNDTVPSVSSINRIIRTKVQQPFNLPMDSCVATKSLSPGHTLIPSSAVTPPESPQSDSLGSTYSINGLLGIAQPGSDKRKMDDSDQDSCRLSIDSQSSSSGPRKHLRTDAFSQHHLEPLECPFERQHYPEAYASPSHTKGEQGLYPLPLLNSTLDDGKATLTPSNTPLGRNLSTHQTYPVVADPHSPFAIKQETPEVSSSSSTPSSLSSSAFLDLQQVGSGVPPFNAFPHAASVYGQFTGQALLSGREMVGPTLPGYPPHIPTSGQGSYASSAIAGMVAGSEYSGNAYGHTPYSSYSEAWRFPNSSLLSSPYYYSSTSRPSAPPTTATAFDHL
Phospholipase D2, sequence (O14939 whole entry): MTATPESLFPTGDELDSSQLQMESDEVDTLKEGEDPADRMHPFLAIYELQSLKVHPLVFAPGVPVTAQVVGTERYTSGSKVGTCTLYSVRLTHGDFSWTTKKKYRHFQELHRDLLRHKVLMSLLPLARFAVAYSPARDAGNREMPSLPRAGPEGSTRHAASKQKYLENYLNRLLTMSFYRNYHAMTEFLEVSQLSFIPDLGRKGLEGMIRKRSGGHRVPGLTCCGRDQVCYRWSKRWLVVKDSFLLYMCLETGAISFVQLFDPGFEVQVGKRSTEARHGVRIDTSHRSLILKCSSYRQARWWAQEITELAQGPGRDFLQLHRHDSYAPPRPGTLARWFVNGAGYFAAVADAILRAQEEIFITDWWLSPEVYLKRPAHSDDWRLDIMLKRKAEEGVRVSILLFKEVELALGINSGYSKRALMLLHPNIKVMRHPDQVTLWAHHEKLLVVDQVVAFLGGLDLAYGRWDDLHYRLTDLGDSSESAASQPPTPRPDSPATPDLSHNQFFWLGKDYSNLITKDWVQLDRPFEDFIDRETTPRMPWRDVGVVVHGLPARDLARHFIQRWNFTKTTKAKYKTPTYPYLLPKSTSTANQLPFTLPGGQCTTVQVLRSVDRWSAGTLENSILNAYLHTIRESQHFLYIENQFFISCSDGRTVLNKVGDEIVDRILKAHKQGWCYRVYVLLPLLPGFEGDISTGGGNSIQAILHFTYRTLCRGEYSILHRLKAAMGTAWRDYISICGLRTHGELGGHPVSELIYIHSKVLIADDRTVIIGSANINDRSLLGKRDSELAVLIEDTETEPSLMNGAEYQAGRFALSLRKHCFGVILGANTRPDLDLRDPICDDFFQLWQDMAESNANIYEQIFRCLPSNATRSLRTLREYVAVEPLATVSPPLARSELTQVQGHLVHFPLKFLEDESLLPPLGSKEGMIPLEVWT
CAAX prenyl protease 2 (Saccharomyces cerevisiae S288c, UniProt Q03530), sequence (Q03530 whole entry): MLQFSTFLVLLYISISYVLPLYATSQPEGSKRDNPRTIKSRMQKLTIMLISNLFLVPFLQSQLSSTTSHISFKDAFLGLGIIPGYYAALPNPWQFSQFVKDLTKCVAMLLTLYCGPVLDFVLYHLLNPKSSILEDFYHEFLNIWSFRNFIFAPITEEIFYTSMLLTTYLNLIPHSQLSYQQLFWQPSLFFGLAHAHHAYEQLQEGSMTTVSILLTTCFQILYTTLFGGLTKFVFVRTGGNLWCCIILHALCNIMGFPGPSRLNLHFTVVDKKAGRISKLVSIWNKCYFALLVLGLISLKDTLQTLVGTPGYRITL
Delta-type opioid receptor, sequence (P41143 whole entry): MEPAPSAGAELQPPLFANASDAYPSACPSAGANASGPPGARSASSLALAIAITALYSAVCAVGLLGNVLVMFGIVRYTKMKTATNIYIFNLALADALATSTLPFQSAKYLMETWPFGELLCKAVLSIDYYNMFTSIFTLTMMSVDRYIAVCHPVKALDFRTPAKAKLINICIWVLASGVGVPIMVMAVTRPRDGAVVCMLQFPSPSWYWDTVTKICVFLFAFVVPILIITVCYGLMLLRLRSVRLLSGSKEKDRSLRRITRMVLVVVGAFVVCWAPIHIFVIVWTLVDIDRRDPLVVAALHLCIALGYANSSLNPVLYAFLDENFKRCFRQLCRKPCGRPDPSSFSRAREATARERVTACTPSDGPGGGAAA
Acyl-homoserine lactone acylase PvdQ, sequence (Q9I194 24-193 limits assumed): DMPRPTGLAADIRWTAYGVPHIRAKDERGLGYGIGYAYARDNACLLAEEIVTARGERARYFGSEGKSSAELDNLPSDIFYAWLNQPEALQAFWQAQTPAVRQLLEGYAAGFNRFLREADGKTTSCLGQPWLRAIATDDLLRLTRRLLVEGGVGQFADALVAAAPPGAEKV
Acyl-homoserine lactone acylase PvdQ, sequence (Q9I194 217-762 limits assumed): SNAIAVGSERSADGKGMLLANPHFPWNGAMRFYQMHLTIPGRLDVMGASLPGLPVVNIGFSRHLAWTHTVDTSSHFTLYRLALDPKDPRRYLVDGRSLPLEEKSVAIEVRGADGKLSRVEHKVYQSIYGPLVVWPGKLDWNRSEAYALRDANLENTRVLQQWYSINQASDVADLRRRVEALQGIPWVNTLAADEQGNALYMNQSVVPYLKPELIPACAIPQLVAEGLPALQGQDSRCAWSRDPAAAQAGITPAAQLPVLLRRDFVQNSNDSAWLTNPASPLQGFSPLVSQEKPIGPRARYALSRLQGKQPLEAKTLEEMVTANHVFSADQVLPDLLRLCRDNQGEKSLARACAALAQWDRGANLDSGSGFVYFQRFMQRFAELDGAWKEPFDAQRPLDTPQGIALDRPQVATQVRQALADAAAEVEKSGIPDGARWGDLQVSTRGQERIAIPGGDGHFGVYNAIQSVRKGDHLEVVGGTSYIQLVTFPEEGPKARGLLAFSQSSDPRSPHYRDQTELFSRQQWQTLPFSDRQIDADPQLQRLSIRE
Mu-type opioid receptor, sequence (P35372 whole entry): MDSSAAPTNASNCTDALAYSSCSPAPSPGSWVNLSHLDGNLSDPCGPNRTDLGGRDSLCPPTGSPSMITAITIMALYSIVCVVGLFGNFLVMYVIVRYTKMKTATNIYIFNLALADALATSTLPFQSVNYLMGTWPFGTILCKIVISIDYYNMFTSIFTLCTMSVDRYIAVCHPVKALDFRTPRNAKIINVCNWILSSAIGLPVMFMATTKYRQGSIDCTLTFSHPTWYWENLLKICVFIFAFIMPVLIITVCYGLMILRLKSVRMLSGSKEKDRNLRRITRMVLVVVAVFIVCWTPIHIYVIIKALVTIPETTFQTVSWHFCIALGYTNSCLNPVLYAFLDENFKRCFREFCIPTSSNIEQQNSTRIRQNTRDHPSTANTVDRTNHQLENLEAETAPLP
CAAX prenyl protease 2 (Homo sapiens, UniProt Q9Y256), sequence (Q9Y256 whole entry): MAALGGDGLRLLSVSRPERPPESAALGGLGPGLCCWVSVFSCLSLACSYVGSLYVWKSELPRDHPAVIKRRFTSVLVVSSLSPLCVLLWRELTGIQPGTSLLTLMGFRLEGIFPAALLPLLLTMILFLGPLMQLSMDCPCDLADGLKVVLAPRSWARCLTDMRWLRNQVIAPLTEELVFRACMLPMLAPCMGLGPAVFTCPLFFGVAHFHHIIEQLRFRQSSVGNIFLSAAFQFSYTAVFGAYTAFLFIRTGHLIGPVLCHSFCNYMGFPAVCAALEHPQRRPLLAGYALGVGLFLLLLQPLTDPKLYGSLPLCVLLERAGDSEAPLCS
Phospholipase D1, sequence (Q13393 whole entry): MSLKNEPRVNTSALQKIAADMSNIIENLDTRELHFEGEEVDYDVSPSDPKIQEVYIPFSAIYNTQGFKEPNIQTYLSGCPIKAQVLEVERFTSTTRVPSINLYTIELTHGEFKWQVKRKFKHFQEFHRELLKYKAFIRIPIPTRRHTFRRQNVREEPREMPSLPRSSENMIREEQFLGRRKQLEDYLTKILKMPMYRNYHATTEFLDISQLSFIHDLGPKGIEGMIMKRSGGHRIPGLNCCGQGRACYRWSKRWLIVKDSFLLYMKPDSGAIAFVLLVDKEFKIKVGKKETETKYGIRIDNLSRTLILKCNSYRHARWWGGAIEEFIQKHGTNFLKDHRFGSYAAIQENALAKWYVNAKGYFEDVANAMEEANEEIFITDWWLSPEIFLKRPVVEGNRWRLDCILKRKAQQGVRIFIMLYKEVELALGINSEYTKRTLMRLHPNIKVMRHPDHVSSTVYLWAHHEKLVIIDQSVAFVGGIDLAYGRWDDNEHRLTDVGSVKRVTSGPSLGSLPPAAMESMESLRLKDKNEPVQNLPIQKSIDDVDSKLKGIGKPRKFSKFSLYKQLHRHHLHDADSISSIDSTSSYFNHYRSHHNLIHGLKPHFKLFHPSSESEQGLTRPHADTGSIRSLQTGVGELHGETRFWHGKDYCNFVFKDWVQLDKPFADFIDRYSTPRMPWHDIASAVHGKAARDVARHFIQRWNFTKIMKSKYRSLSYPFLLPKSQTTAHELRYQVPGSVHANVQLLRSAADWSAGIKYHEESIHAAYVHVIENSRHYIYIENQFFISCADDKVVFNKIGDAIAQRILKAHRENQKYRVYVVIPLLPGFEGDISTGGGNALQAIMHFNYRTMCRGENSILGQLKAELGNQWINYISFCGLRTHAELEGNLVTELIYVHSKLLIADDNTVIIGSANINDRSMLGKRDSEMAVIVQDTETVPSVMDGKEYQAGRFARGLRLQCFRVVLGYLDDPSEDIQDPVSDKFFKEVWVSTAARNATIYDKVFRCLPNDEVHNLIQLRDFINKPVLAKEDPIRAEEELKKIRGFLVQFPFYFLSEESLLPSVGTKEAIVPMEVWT

O=C(NCCc1ccccc1)c1ccc2c(c1)OCCCO2
EC50 [1]: < 0.16 µM (active) | IC50 [2]: > 39.8 µM (not active) | IC50 (Jurkat [3]): 0.64 µM (active) | IC50 [4]: > 80 µM (inactive) | AC50 [5]: 1.05 µM (active) | AC50 [6]: > 70 µM (inactive) | AC50 (Paired box protein Pax-8): 2.38 µM (active) | AC50 [7]: 2 µM (active) | AC50 [8]: 84.9 µM (active) | AC50 [9]: 3.96 µM (active) | AC50 [10]: 14.2 µM (active) | AC50 [11]: 2.29 µM (active) | AC50 [12]: 40.3 µM (active) | AC50 [13]: 58.7 µM (active) | AC50 (Escherichia coli): 34.1 µM (active)

O=Cc1cc2ccccc2nc1SCc1ccc(Cl)c(Cl)c1
EC50 [14]: > 120 µM (not active) | EC50 (BJ [15]): 0.279 µM (active) | EC50 [16]: > 120 µM (not active) | EC50 (BJ [17]): 0.777 µM (active) | EC50 (BJ [18]): 0.396 µM (inconclusive) | EC50 [19]: 0.567 µM (active) | AC50 [20]: 2.82 µM (active) | IC50 [21]: > 80 µM (inactive) | EC50 (BJ [22]): < 0.104 µM (active)

CC(=O)N1CCN(c2ccc(NC(=O)c3ccc([N+](=O)[O-])o3)cc2Cl)CC1
EC50 [14]: 11.1 µM (active) | EC50 [16]: 8.31 µM (active) | EC50 [23]: 9.29 µM (active) | IC50 (HEK293 [24]): 55.3 µM (inactive) | IC50 (Jurkat [25]): 27.3 µM (inactive) | IC50 (HEK293 [26]): 22 µM (inactive) | AC50 [5]: 1.08 µM (active) | AC50 [6]: 48.1 µM (active) | AC50 [27]: 11.2 µM (active) | IC50 [28]: 49.8 µM (inactive) | AC50 (Paired box protein Pax-8): 5.83 µM (active)

O=C(NCCN1CCC2(CC1)C(=O)Oc1ccccc12)c1cnc2ccccc2c1
IC50 (Phospholipase D1): 20 µM (inactive) | IC50 (Phospholipase D2): 20 µM (active)

O=C(c1cc(-c2ccccc2)nc2ccccc12)N1CCN(c2ccccn2)CC1
AC50 (CAAX prenyl protease 2 [29]): 4.89 µM (active) | AC50 (CAAX prenyl protease 2 [30]): 17 µM (active)

COC(=O)c1ccc(/C=C(\C#N)c2ccccn2)cc1
AC50 [31]: 2.61 µM (active) | AC50 (HeLa): 103 µM (active)

CCOC(=O)C1(CCOc2ccccc2)CCN(Cc2cnc(C)s2)CC1
EC50 [32]: 0.237 µM (active) | EC50 [33]: > 92.5 µM (inactive) | EC50 (Mu-type opioid receptor): > 92.5 µM (inactive) | EC50 [34]: > 92.5 µM (inactive)
